Data reported in ChEMBL document CHEMBL1129369, “Forskolin carbamates: binding and activation studies with type I adenylyl cyclase” (J Med Chem, 1996).

How the values were obtained:
Adenylate cyclase type 1 [1] = target: T1, Adenylate cyclase type 1 (Homo sapiens, UniProt Q08828); assay: Ability to activate the conversion of [32P] ATP to [32P]-cyclic AMP mediated by adenylate cyclase 1; format: functional
Target sequence in this assay (Q08828 whole entry): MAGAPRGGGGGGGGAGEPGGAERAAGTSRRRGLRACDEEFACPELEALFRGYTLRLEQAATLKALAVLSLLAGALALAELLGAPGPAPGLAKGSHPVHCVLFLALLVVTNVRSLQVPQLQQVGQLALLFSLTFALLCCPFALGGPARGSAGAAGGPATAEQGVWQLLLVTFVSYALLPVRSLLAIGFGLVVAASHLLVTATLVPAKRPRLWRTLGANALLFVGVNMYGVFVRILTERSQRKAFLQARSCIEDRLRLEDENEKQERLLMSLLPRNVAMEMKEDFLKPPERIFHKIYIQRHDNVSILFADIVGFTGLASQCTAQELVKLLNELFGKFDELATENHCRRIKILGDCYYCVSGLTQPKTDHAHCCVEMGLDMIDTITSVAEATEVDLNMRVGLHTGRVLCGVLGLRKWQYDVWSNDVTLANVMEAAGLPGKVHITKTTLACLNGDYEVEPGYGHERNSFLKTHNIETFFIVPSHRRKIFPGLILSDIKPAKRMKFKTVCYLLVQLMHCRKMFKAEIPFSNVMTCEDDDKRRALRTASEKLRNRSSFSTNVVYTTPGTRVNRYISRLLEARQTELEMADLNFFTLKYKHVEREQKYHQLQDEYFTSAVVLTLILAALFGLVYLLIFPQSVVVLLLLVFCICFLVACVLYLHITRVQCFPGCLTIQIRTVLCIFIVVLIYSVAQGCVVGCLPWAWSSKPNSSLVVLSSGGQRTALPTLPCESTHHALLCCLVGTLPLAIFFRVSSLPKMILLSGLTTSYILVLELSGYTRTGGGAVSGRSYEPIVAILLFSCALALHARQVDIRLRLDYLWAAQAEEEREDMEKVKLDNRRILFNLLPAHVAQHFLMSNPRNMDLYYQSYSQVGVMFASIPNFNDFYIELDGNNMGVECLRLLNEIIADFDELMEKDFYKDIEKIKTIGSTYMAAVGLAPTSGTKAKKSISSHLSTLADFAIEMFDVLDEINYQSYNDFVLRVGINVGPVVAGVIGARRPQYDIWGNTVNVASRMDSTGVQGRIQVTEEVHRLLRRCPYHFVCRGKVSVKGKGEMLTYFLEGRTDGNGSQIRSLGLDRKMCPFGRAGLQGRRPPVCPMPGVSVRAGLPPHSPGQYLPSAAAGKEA

Adenylate cyclase type 1 [2] = target: T1, Adenylate cyclase type 1; assay: Conversion of [32P] ATP to [32P]-cyclic AMP mediated by adenylate cyclase 1; format: functional
Target sequence in this assay (Q08828 whole entry): as above

Adenylate cyclase type 1 [3] = target: T1, Adenylate cyclase type 1; assay: (§1) Inhibition of [125 I]6-IHPP-forskolin binding to adenylate cyclase 1
Target sequence in this assay (Q08828 whole entry): as above

Adenylate cyclase type 1 [4] = target: T1, Adenylate cyclase type 1; assay: as §1; remark: listed apart in the source
Target sequence in this assay (Q08828 whole entry): as above

Adenylate cyclase type 1 [5] = target: T1, Adenylate cyclase type 1; assay: Maximum stimulation activity measured with 100 uM forskolin mediated by adenylate cyclase 1; format: functional
Target sequence in this assay (Q08828 whole entry, looked up): as the sequence (Q08828 whole entry) above

Row | Compound | EC50 (Adenylate cyclase type 1 [1]) | EC50 (Adenylate cyclase type 1 [2]; read-out: EC50) | IC50 (Adenylate cyclase type 1 [3]) | IC50 (Adenylate cyclase type 1 [4]) | Activity (Adenylate cyclase type 1 [5]) | EC50 (Adenylate cyclase type 1 [2])
1 | C=C[C@@]1(C)CC(=O)[C@]2(O)[C@@]3(C)[C@@H](O)CCC(C)(C)[C@@H]3[C@H](O)[C@H](OC(=O)NCCC(C)(C)C)[C@@]2(C)O1 | > 2000 nM | 9600 nM | 608 nM | > 150 nM | 58% | –
2 | C=C[C@@]1(C)CC(=O)[C@]2(O)[C@@]3(C)[C@@H](O)CCC(C)(C)[C@@H]3[C@H](O)[C@H](OC(=O)NCCOC)[C@@]2(C)O1 | > 2000 nM | 1600 nM | 174 nM | > 150 nM | 97% | –
3 | C=C[C@@]1(C)CC(=O)[C@]2(O)[C@@]3(C)[C@@H](O)CCC(C)(C)[C@@H]3[C@H](OC(=O)NCCC(C)(C)C)[C@H](O)[C@@]2(C)O1 | > 2000 nM | 2100 nM | 680 nM | > 150 nM | 63% | –
4 | C=C[C@@]1(C)CC(=O)[C@]2(O)[C@@]3(C)[C@@H](O)CCC(C)(C)[C@@H]3[C@H](OC(=O)NCCN)[C@H](OC(C)=O)[C@@]2(C)O1 | < 2000 nM | 600 nM | 31 nM | < 150 nM | 125% | –
5 | C=C[C@@]1(C)CC(=O)[C@]2(O)[C@@]3(C)[C@@H](O)CCC(C)(C)[C@@H]3[C@H](OC(=O)NCCC(=O)OCC)[C@H](OC(C)=O)[C@@]2(C)O1 | > 2000 nM | 3500 nM | 44 nM | < 150 nM | 157% | –
6 | C=C[C@@]1(C)CC(=O)[C@]2(O)[C@@]3(C)[C@@H](O)CCC(C)(C)[C@@H]3[C@H](O)[C@H](OC(=O)NCCN)[C@@]2(C)O1 | < 2000 nM | 700 nM | 128 nM | < 150 nM | 85% | –
7 | C=C[C@@]1(C)CC(=O)[C@]2(O)[C@@]3(C)[C@@H](O)CCC(C)(C)[C@@H]3[C@H](O)[C@H](OC(=O)NCC3CCCCC3)[C@@]2(C)O1 | > 2000 nM | 6400 nM | 1600 nM | > 150 nM | 44% | –
8 | C=C[C@@]1(C)CC(=O)[C@]2(O)[C@@]3(C)[C@@H](O)CCC(C)(C)[C@@H]3[C@H](OC(=O)NCCC(=O)OCC)[C@H](O)[C@@]2(C)O1 | > 2000 nM | 6500 nM | 171 nM | > 150 nM | 75% | –
9 | C=C[C@@]1(C)CC(=O)[C@]2(O)[C@@]3(C)[C@@H](O)CCC(C)(C)[C@@H]3[C@H](OC(=O)NCC(C)C)[C@H](OC(C)=O)[C@@]2(C)O1 | > 2000 nM | 4100 nM | 167 nM | > 150 nM | 93% | –
10 | C=C[C@@]1(C)CC(=O)[C@]2(O)[C@@]3(C)[C@@H](O)CCC(C)(C)[C@@H]3[C@H](OC(=O)NCCN3CCCCC3)[C@H](OC(C)=O)[C@@]2(C)O1 | < 2000 nM | 500 nM | 82 nM | < 150 nM | 100% | –
11 | C=C[C@@]1(C)CC(=O)[C@]2(O)[C@@]3(C)[C@@H](O)CCC(C)(C)[C@@H]3[C@H](O)[C@H](OC(=O)NCCc3ccccn3)[C@@]2(C)O1 | < 2000 nM | 1100 nM | 143 nM | < 150 nM | 91% | –
12 | C=C[C@@]1(C)CC(=O)[C@]2(O)[C@@]3(C)[C@@H](O)CCC(C)(C)[C@@H]3[C@H](OC(=O)NCCOC)[C@H](OC(C)=O)[C@@]2(C)O1 | < 2000 nM | 700 nM | 32 nM | < 150 nM | 71% | –
13 | C=C[C@@]1(C)CC(=O)[C@]2(O)[C@@]3(C)[C@@H](O)CCC(C)(C)[C@@H]3[C@H](OC(=O)NCCN3CCCCC3)[C@H](O)[C@@]2(C)O1 | < 2000 nM | 1700 nM | 123 nM | < 150 nM | 80% | –
14 | C=C[C@@]1(C)CC(=O)[C@]2(O)[C@@]3(C)[C@@H](O)CCC(C)(C)[C@@H]3[C@H](OC(=O)NCCc3ccc(O)cc3)[C@H](O)[C@@]2(C)O1 | < 2000 nM | 630 nM | 236 nM | > 150 nM | 86% | –
15 | C=C[C@@]1(C)CC(=O)[C@]2(O)[C@@]3(C)[C@@H](O)CCC(C)(C)[C@@H]3[C@H](OC(=O)NCCc3ccccc3)[C@H](O)[C@@]2(C)O1 | < 2000 nM | 1100 nM | 65 nM | < 150 nM | 72% | –
16 | C=C[C@@]1(C)CC(=O)[C@]2(O)[C@@]3(C)[C@@H](O)CCC(C)(C)[C@@H]3[C@H](O)[C@H](OC(=O)NCCC(=O)OCC)[C@@]2(C)O1 | > 2000 nM | 3600 nM | 185 nM | > 150 nM | 127% | –
17 | C=C[C@@]1(C)CC(=O)[C@]2(O)[C@@]3(C)[C@@H](O)CCC(C)(C)[C@@H]3[C@H](OC(=O)NCCc3ccc(N)cc3)[C@H](OC(C)=O)[C@@]2(C)O1 | < 2000 nM | 500 nM | 39 nM | < 150 nM | 55% | –
18 | C=C[C@@]1(C)CC(=O)[C@]2(O)[C@@]3(C)[C@@H](O)CCC(C)(C)[C@@H]3[C@H](O)[C@H](OC(=O)NCCc3ccccc3)[C@@]2(C)O1 | > 2000 nM | 2100 nM | 251 nM | > 150 nM | 75% | –
19 | C=C[C@@]1(C)CC(=O)[C@]2(O)[C@@]3(C)[C@@H](O)CCC(C)(C)[C@@H]3[C@H](OC(=O)NCC3CCCCC3)[C@H](OC(C)=O)[C@@]2(C)O1 | > 2000 nM | 6600 nM | 117 nM | > 150 nM | 74% | –
20 | C=CCNC(=O)O[C@H]1[C@H]2C(C)(C)CC[C@H](O)[C@]2(C)[C@@]2(O)C(=O)C[C@](C)(C=C)O[C@]2(C)[C@H]1O | > 2000 nM | 3500 nM | 306 nM | > 150 nM | 94% | –
21 | C=C[C@@]1(C)CC(=O)[C@]2(O)[C@@]3(C)[C@@H](O)CCC(C)(C)[C@@H]3[C@H](OC(=O)NCCO)[C@H](OC(C)=O)[C@@]2(C)O1 | < 2000 nM | 500 nM | 142 nM | < 150 nM | 57% | –
22 | C=C[C@@]1(C)CC(=O)[C@]2(O)[C@@]3(C)[C@@H](O)CCC(C)(C)[C@@H]3[C@H](OC(=O)NCC3CCCCC3)[C@H](O)[C@@]2(C)O1 | < 2000 nM | 1000 nM | 433 nM | > 150 nM | 51% | –
23 | C=C[C@@]1(C)CC(=O)[C@]2(O)[C@@]3(C)[C@@H](O)CCC(C)(C)[C@@H]3[C@H](OC(=O)NCCc3ccc(N)cc3)[C@H](O)[C@@]2(C)O1 | > 2000 nM | 5100 nM | 162 nM | > 150 nM | 83% | –
24 | C=C[C@@]1(C)CC(=O)[C@]2(O)[C@@]3(C)[C@@H](O)CCC(C)(C)[C@@H]3[C@H](OC(=O)NCCC(C)(C)C)[C@H](OC(C)=O)[C@@]2(C)O1 | > 2000 nM | 8100 nM | 271 nM | > 150 nM | 84% | –
25 | C=C[C@@]1(C)CC(=O)[C@]2(O)[C@@]3(C)[C@@H](O)CCC(C)(C)[C@@H]3[C@H](OC(=O)NCC(C)C)[C@H](O)[C@@]2(C)O1 | > 2000 nM | 2500 nM | 593 nM | > 150 nM | 88% | –
26 | C=C[C@@]1(C)CC(=O)[C@]2(O)[C@@]3(C)[C@@H](O)CCC(C)(C)[C@@H]3[C@H](O)[C@H](OC(=O)NCC(C)C)[C@@]2(C)O1 | > 2000 nM | 2700 nM | 112 nM | < 150 nM | 72% | –
27 | C=C[C@@]1(C)CC(=O)[C@]2(O)[C@@]3(C)[C@@H](O)CCC(C)(C)[C@@H]3[C@H](O)[C@H](OC(=O)NCCc3ccc(O)cc3)[C@@]2(C)O1 | < 2000 nM | 1400 nM | 95 nM | < 150 nM | 45% | –
28 | C=C[C@@]1(C)CC(=O)[C@]2(O)[C@@]3(C)[C@@H](O)CCC(C)(C)[C@@H]3[C@H](OC(=O)NCCc3ccccn3)[C@H](OC(C)=O)[C@@]2(C)O1 | < 2000 nM | 600 nM | 21 nM | < 150 nM | 97% | –
29 | C=C[C@@]1(C)CC(=O)[C@]2(O)[C@@]3(C)[C@@H](O)CCC(C)(C)[C@@H]3[C@H](OC(=O)NCCN)[C@H](O)[C@@]2(C)O1 | – | – | 192 nM | – | – | Indeterminate
